± gives the expanded uncertainty stated by the source.
Conditions: 363.15 K; Liquid

Row | Structure (SMILES) | vapor or sublimation pressure
1 | CNC=O [N-methylformamide] | 2.1 ± 0.09 kPa [middle of 4 runs]
2 | CC#N [acetonitrile] | 131.21 ± 1.7 kPa
3 | c1ccccc1 [benzene] | 137.28 ± 1.8 kPa
4 | Clc1ccccc1 [chlorobenzene] | 28.33 ± 0.42 kPa
5 | CCCCCC [hexane] | 188.05 ± 2.4 kPa
